From patent US20070071780A1, “Personal care composition comprising a perfume booster accord” (priority 2005, published 2007)

System: human nose
Experiment: Odor intensity evaluation by panelists and Human Recognition Slope Factor (HRSF) calculation in DPG
Settings: for HRSF (Human Recognition Slope Factor = Ii/xi) / Ii (maximum intensity in a given media) / xi (lowest concentration to reach maximum intensity): low hydrophobic media (DPG); for Odor Intensity (I): average of 25 panelists, in DPG
From the text: The Human Recognition Slope Factor (HRSF) is a tool in choosing the most efficient high odor value materials to create perfume booster accords. […] The higher the number, the more efficient the material will be.
The HRSF identifies the behavior of perfume materials through the relevant range of concentrations in a given product. The calculation process of the HRSF also defines the concentration where the high odor value material reaches its maximum intensity in a given media.
The HRSF is determined by the following calculations: HRSF=Ii/xi wherein: HRSF=Human Recognition Slope Factor; Ii is the maximum intensity that a high odor value material delivers in a given media; and xi is the lowest concentration of the high odor value material to reach maximum intensity.
The value of Ii and xi are calculated using the following two equations. The first equation (I) describes the intensity of a high odor value material across a broad range of concentrations. The second equation (VI) allows one to find the maximum concentration when both mathematical equations reach the same intensity value. I=a/(1+(x/c)ˆb) (I) wherein: I is the Intensity of the high odor value material; x is the concentration of the material; and a, b, and c are experimental constants for each high odor value material.
The experimental constants of “a, b, and c” are generated by performing a non linear regression analysis using commercially available software. One software package useful in performing the non linear regression analysis is GraphPad Prism 4 for Windows, available from GraphPad Software, Inc., San Diego Calif.
Odor evaluations of each raw material are conducted among at least 25 people. Each material is diluted to a given concentration, and panelists are requested to grade the smell using a numeric scale (Low: 0-15, Slight: 16-30, Moderate: 31-50, Strong: 51-70, Very Strong: 71-up). Internal controls containing Benzyl salicylate, Citronellol and Ethyl 2 Methyl Butyrate are used to define the standard intensity for each range.
An illustration of how the non linear regression analysis works is described below. In the following example, the material Alpha Damascone was used for illustrative purposes. The experimental data from 25 panelists indicate that the average value for each observation of Alpha Damascone in DPG is as follows:
The goal of the software package is to minimize the sum of the squares of the vertical distances of the points from the curve. The software prompts the user to perform the following steps to run an iterative process that allows one to find the values of a, b, and c. The R^2 factor (shown below) will indicate if the objective of minimizing the sum of the squares of the vertical distances of the points from the curve was achieved. The closer the R^2 factor is to 1.0, the better the “best-fit values” will be.
The software generates the curve defined by the initial values, calculates the sum-of-squares (the sum of the squares of the vertical distances of the points from the curve), adjusts the variables to make the curve come closer to the data points, adjusts the variables again so that the curve comes even closer to the points, keeps adjusting the variables until the adjustments make virtually no difference in the sum-of-squares and reports the best-fit results.
The “best fit values” are the “a, b, and c” values used in all the equations described herein. Once the “a, b, and c” values are determined, proceed with the following equations.
By definition, the curve that describes that Intensity and its differential curve will meet at the point where a given material delivers the maximum intensity with the minimum mass. Therefore, the next step is to calculate the intersection point by solving the following equation: (ab(xi/c)ˆb)/(x((x/c)ˆb+1)ˆ2=a/(1+(x/c)ˆb) (V)
Therefore, (ab(xi/c)ˆb)/(xi((xi/c)ˆb+1)ˆ2−a/(1+(xi/c)ˆb)=0 (VI) […]

Row | Compound | HRSF (Human Recognition Slope Factor = Ii/xi) | Ii (maximum intensity in a given media) | xi (lowest concentration to reach maximum intensity) | further results
1 | CC(=O)C(C)=CC1C(C)=CCCC1(C)C (stereo not shown) [3-buten-2-one, 3-methyl-4-(2,6,6-trimethyl-2-cyclohexen-1-yl)] | 1,204 | 85.50 | 0.071 | –
2 | C/C=C\C(=O)C1C(C)=CCCC1(C)C (stereo not drawn) [Alpha Damascone] | 2,034 | 62.86 | 0.0309 | Odor Intensity (I) (Concentration (X) 0.0004): 5; Odor Intensity (I) (Concentration (X) 0.0022): 15; Odor Intensity (I) (Concentration (X) 0.0032): 25; Odor Intensity (I) (Concentration (X) 0.0044): 35; Odor Intensity (I) (Concentration (X) 0.0072): 50; Odor Intensity (I) (Concentration (X) 0.0092): 55; Odor Intensity (I) (Concentration (X) 0.0170): 60
3 | CC1(C)CCC[C@]2(C)[C@H]3CCO[C@]3(C)CC[C@@H]12 [Ambroxan, (3aR-(3aalpha,5abeta,9aalpha,9bbeta))-dodecahydro-3a,6,6,9a-tetramethyl naphtha(2,1-b)furan] | 7,675 | 68.31 | 0.0089 | –
4 | Cc1ccc2c(c1)OCC(=O)CO2 [Calone 1951, Methyl-3,4-dioxy(cylcoacetonyl) benzene] | 1,030 | 71.88 | 0.0698 | –
5 | CCCCCCCCCC=O [Decyl Aldehyde] | 1,098 | 54.35 | 0.0495 | –
6 | CCOC(=O)CC1(C)OCCO1 [Fructone, ethyl methyl dioxolane acetate] | 2,243 | 62.36 | 0.0278 | –
7 | CC(=O)/C=C/C1C(C)=CCCC1(C)C (stereo not shown) [Ionone Apha, 3-buten-2-one, 4-(2,6,6-trimethyl-2-cyclohexen-1-yl), (E)] | 1,157 | 91.99 | 0.0795 | –
8 | CC(=O)C=CC1=C(C)CCCC1(C)C [Ionone Beta, 4-(2,6,6-Trimethyl-1-cyclohexenyl)-3-butenone-2] | 15,451 | 47.90 | 0.0031 | –
9 | CCCCCCCCCCCC=O [Lauric Ald] | 1,409 | 67.33 | 0.0478 | –
10 | CC(=O)OC(C)c1ccccc1 (stereo not shown) [Methyl Phenyl Carbinyl Acetate] | 756 | 50.63 | 0.067 | –
11 | CC1=CCC(C=CC(C)(C)C(C)O)C1(C)C (stereo not shown) [Polysantol, 3,3-Dimethyl-5-(2,2,3-trimethyl-3-cycloenten-1-yl)-4-penten-2-ol] | 690 | 73.16 | 0.106 | –
12 | CCC(C)(O)CCCC(C)C (stereo not shown) [Tetra Hydro linalool, Tetra Hydro 3,7-Dimethyl-1,6-octadien-3-ol] | 838 | 53.69 | 0.0641 | –
13 | CC(=O)OC1CC2CC1C1CC=CC21 (stereo not shown) [Tricyclo decenyl acetate] | 1,379 | 46.74 | 0.0339 | –
14 | CC(=O)OC1CCCCC1C(C)(C)C (stereo not shown) [Verdox, ortho tertiary butyl cyclohexanyl acetate] | 998 | 51.91 | 0.052 | –
15 | Hexahydro-4,7methano-1H-inden-5(or 6)-yl propionate [Frutene] | 738 | 80.35 | 0.1089 | –
16 | Methyl Cedrylone | 811 | 84.44 | 0.1041 | –
